According to the supplement of paper PMC10307832:

Experiments:
Test in all cases: relative viability (nuclei count vs DMSO), 5 days (fraction); higher = more cells survive
201T = system: 201T
How it was run: (§1)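 Cells from lung cancer lines were seeded into 1536-well plates and, one day later, dosed by pin tool. Treatments were either a single drug or a fixed dose of an anchor drug with five library-drug doses (not always all listed) in √10 steps. After 5 days, nuclei were stained in a one-step fixation (final 0.05% Triton X-100, 1% formaldehyde, 1 ug/ml Hoechst) and counted on 4× images, and relative viability is the treated-to-vehicle nuclei ratio, as the median of duplicate plates.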

COR-L 105 = system: COR-L 105
How it was run: as §1

ChaGo-K-1 = system: ChaGo-K-1
How it was run: as §1

EPLC-272H = system: EPLC-272H
How it was run: as §1

H3255 = system: H3255
How it was run: as §1

HCC-78 = system: HCC-78
How it was run: as §1

HCC-827 = system: HCC-827
How it was run: as §1

LC-2-ad = system: LC-2-ad
How it was run: as §1

LCLC-97TM1 = system: LCLC-97TM1
How it was run: as §1

NCI-H1666 = system: NCI-H1666
How it was run: as §1

NCI-H1915 = system: NCI-H1915
How it was run: as §1

NCI-H2087 = system: NCI-H2087
How it was run: as §1

NCI-H2126 = system: NCI-H2126
How it was run: as §1

NCI-H2347 = system: NCI-H2347
How it was run: as §1

NCI-H23 = system: NCI-H23
How it was run: as §1

NCI-H2405 = system: NCI-H2405
How it was run: as §1

NCI-H520 = system: NCI-H520
How it was run: as §1

NCI-H647 = system: NCI-H647
How it was run: as §1

NCI-H650 = system: NCI-H650
How it was run: as §1

NCI-H661 = system: NCI-H661
How it was run: as §1

PC-14 = system: PC-14
How it was run: as §1

RERF-LC-KJ = system: RERF-LC-KJ
How it was run: as §1

## COc1nc(C)cnc1NS(=O)(=O)c1cccnc1-c1ccc(-c2nnco2)cc1 [Zibotentan] + N=C(N)NC(=N)NCCc1ccccc1 [Phenformin] (partner 250 µM)
201T; first compound 0.08 µM
  relative viability: 0.477
201T; first compound 0.253 µM
  relative viability: 0.451
201T; first compound 0.8 µM
  relative viability: 0.441
201T; first compound 2.53 µM
  relative viability: 0.442
COR-L 105; first compound 0.08 µM
  relative viability: 0.382
COR-L 105; first compound 0.253 µM
  relative viability: 0.423
COR-L 105; first compound 0.8 µM
  relative viability: 0.406
COR-L 105; first compound 2.53 µM
  relative viability: 0.554
ChaGo-K-1; first compound 0.08 µM
  relative viability: 0.563
ChaGo-K-1; first compound 0.253 µM
  relative viability: 0.42
ChaGo-K-1; first compound 0.8 µM
  relative viability: 0.469
ChaGo-K-1; first compound 2.53 µM
  relative viability: 0.543
EPLC-272H; first compound 0.08 µM
  relative viability: 0.287
EPLC-272H; first compound 0.253 µM
  relative viability: 0.296
EPLC-272H; first compound 0.8 µM
  relative viability: 0.306
EPLC-272H; first compound 2.53 µM
  relative viability: 0.306
H3255; first compound 0.08 µM
  relative viability: 0.386
H3255; first compound 0.253 µM
  relative viability: 0.326
H3255; first compound 0.8 µM
  relative viability: 0.307
H3255; first compound 2.53 µM
  relative viability: 0.354
HCC-78; first compound 0.08 µM
  relative viability: 0.778
HCC-78; first compound 0.253 µM
  relative viability: 0.598
HCC-78; first compound 0.8 µM
  relative viability: 0.581
HCC-78; first compound 2.53 µM
  relative viability: 0.59
HCC-827; first compound 0.08 µM
  relative viability: 0.429
HCC-827; first compound 0.253 µM
  relative viability: 0.399
HCC-827; first compound 0.8 µM
  relative viability: 0.387
HCC-827; first compound 2.53 µM
  relative viability: 0.421
LC-2-ad; first compound 0.08 µM
  relative viability: 0.564
LC-2-ad; first compound 0.8 µM
  relative viability: 0.689
LC-2-ad; first compound 2.53 µM
  relative viability: 0.619
LCLC-97TM1; first compound 0.08 µM
  relative viability: 0.457
LCLC-97TM1; first compound 0.253 µM
  relative viability: 0.449
LCLC-97TM1; first compound 0.8 µM
  relative viability: 0.464
LCLC-97TM1; first compound 2.53 µM
  relative viability: 0.465
NCI-H1666; first compound 0.08 µM
  relative viability: 0.515
NCI-H1666; first compound 0.253 µM
  relative viability: 0.54
NCI-H1666; first compound 0.8 µM
  relative viability: 0.596
NCI-H1666; first compound 2.53 µM
  relative viability: 0.559
NCI-H1915; first compound 0.08 µM
  relative viability: 0.399
NCI-H1915; first compound 0.253 µM
  relative viability: 0.358
NCI-H1915; first compound 0.8 µM
  relative viability: 0.377
NCI-H1915; first compound 2.53 µM
  relative viability: 0.289
NCI-H2087; first compound 0.08 µM
  relative viability: 0.423
NCI-H2087; first compound 0.253 µM
  relative viability: 0.428
NCI-H2087; first compound 0.8 µM
  relative viability: 0.54
NCI-H2087; first compound 2.53 µM
  relative viability: 0.486
NCI-H2126; first compound 0.08 µM
  relative viability: 0.534
NCI-H2126; first compound 0.8 µM
  relative viability: 0.518
NCI-H2126; first compound 2.53 µM
  relative viability: 0.575
NCI-H2347; first compound 0.253 µM
  relative viability: 0.434
NCI-H2347; first compound 0.8 µM
  relative viability: 0.375
NCI-H2347; first compound 2.53 µM
  relative viability: 0.444
NCI-H23; first compound 0.08 µM
  relative viability: 0.85
NCI-H23; first compound 0.253 µM
  relative viability: 0.762
NCI-H23; first compound 0.8 µM
  relative viability: 0.761
NCI-H23; first compound 2.53 µM
  relative viability: 0.86
NCI-H2405; first compound 0.08 µM
  relative viability: 0.422
NCI-H2405; first compound 0.253 µM
  relative viability: 0.39
NCI-H2405; first compound 0.8 µM
  relative viability: 0.436
NCI-H2405; first compound 2.53 µM
  relative viability: 0.439
NCI-H520; first compound 0.08 µM
  relative viability: 0.726
NCI-H520; first compound 0.253 µM
  relative viability: 0.58
NCI-H520; first compound 0.8 µM
  relative viability: 0.519
NCI-H520; first compound 2.53 µM
  relative viability: 0.581
NCI-H647; first compound 0.08 µM
  relative viability: 0.472
NCI-H647; first compound 0.253 µM
  relative viability: 0.512
NCI-H647; first compound 0.8 µM
  relative viability: 0.37
NCI-H647; first compound 2.53 µM
  relative viability: 0.531
NCI-H650; first compound 0.08 µM
  relative viability: 0.445
NCI-H650; first compound 0.253 µM
  relative viability: 0.389
NCI-H650; first compound 0.8 µM
  relative viability: 0.508
NCI-H650; first compound 2.53 µM
  relative viability: 0.461
NCI-H661; first compound 0.08 µM
  relative viability: 0.267
NCI-H661; first compound 0.253 µM
  relative viability: 0.252
NCI-H661; first compound 0.8 µM
  relative viability: 0.281
NCI-H661; first compound 2.53 µM
  relative viability: 0.296
PC-14; first compound 0.08 µM
  relative viability: 0.692
PC-14; first compound 0.253 µM
  relative viability: 0.377
PC-14; first compound 0.8 µM
  relative viability: 0.66
PC-14; first compound 2.53 µM
  relative viability: 0.601
RERF-LC-KJ; first compound 0.08 µM
  relative viability: 0.423
RERF-LC-KJ; first compound 0.8 µM
  relative viability: 0.418
RERF-LC-KJ; first compound 2.53 µM
  relative viability: 0.447
